From patent US5210193A, “Piperazine derivatives” (American Cyanamid Company, priority 1990, dated 1993)
≈ marks a conversion by molar mass, not a printed value. Where “and” joins values, the source holds several entries; their conditions need not be identical. Equal entries are not always repeated. Where two headings read alike, the source gives them in different places.

Key:
Experiment in all cases: in vitro antibacterial MIC, agar plate dilution
Type in all cases: cell-based
[1] = system: Staphylococcus aureus VGH 84-45; details: 35° C.
Summary of the method: (§1)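 MIC, mcg/ml: lowest concentration with no visible growth after 18 h incubation at 35° C. Mueller-Hinton agar dilution plates; ~10^4 CFU inoculum via Steers replicating device.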

[2] = system: Staphylococcus aureus CMC 83-131; details: Staphylococcus aureus, CMC83131, 18 h, 35° C., read-out: MIC
Summary of the method: as §1

[3] = system: Proteus rettgeri IO 83-21; details: Providencia rettgeri, IO8321, 18 h, 35° C., read-out: MIC
Summary of the method: as §1

[4] = system: Staphylococcus aureus Smith; details: 35° C.
Summary of the method: as §1

[5] = system: Pseudomonas aeruginosa K 84-16; details: Pseudomonas aeruginosa, K8416, 18 h, 35° C., read-out: MIC
Summary of the method: as §1

[6] = system: Klebsiella pneumoniae MOR 84-24; details: Klebsiella pneumoniae, MOR8424, 18 h, 35° C., read-out: MIC
Summary of the method: as §1

Citrobacter div. K 82-24 = details: Citrobacter, DIV.K8224, 18 h, 35° C., read-out: MIC
Summary of the method: as §1

[7] = system: Morganella morganii CMC 84-38; details: 35° C.
Summary of the method: as §1

[8] = system: Pseudomonas aeruginosa CMC 83-20; details: Pseudomonas aeruginosa, CMC8320, 18 h, 35° C., read-out: MIC
Summary of the method: as §1

[9] = system: Klebsiella pneumoniae CMC 84-31; details: Klebsiella pneumoniae, CMC8431, 18 h, 35° C., read-out: MIC
Summary of the method: as §1

[10] = system: Serratia marcescens CMC 83-74; details: Serratia marcescens, CMC8374, 18 h, 35° C., read-out: MIC
Summary of the method: as §1

[11] = system: Escherichia coli CMC 84-11; details: Escherichia coli, CMC8411, 18 h, 35° C., read-out: MIC
Summary of the method: as §1

[12] = system: Staphylococcus aureus VGH 84-47; details: Staphylococcus aureus, VGH8447, 18 h, 35° C., read-out: MIC
Summary of the method: as §1

[13] = system: Klebsiella pneumoniae IO 83-5; details: Klebsiella pneumoniae, IO835, 18 h, 35° C., read-out: MIC
Summary of the method: as §1

[14] = system: Serratia marcescens K 84-18; details: Serratia marcescens, K8418, 18 h, 35° C., read-out: MIC
Summary of the method: as §1

[15] = system: Staphylococcus aureus K 82-26; details: Staphylococcus aureus, K8226, 18 h, 35° C., read-out: MIC
Summary of the method: as §1

[16] = system: Enterobacter cloacae MOR 84-30; details: 35° C.
Summary of the method: as §1

[17] = system: Escherichia coli ATCC 25922; details: 35° C.
Summary of the method: as §1

[18] = system: Escherichia coli VGH 84-19; details: Escherichia coli, VGH8419, 18 h, 35° C., read-out: MIC
Summary of the method: as §1

[19] = system: Pseudomonas aeruginosa VGH 84-3; details: Pseudomonas aeruginosa, VGH843, 18 h, 35° C., read-out: MIC
Summary of the method: as §1

[20] = system: Streptococcus faecalis UCI 85-30; details: Enterococcus faecalis, UCI8530, 18 h, 35° C., read-out: MIC
Summary of the method: as §1

[21] = system: Morganella morganii CMC 84-37; details: 35° C.
Summary of the method: as §1

[22] = system: Pseudomonas aeruginosa VGH 84-4; details: 35° C.
Summary of the method: as §1

[23] = system: Providencia stuarti CMC 83-3; details: Providencia, CMC833, 18 h, 35° C., read-out: MIC
Summary of the method: as §1

[24] = system: Escherichia coli CMC 84-50; details: Escherichia coli, CMC8450, 18 h, 35° C., read-out: MIC
Summary of the method: as §1

[25] = system: Streptococcus faecalis CMC 83-120; details: Enterococcus faecalis, CMC83120, 18 h, 35° C., read-out: MIC
Summary of the method: as §1

[26] = system: Escherichia coli MOR 84-20; details: Escherichia coli, MOR8420, 18 h, 35° C., read-out: MIC
Summary of the method: as §1

[27] = system: Streptococcus faecalis VGH 84-65; details: Enterococcus faecalis, VGH8465, 18 h, 35° C., read-out: MIC
Summary of the method: as §1

[28] = system: Enterobacter cloacae K 84-10; details: Enterobacter cloacae, K8410, 18 h, 35° C., read-out: MIC
Summary of the method: as §1

[29] = system: Streptococcus faecalis UCI 85-19; details: Enterococcus faecalis, UCI8519, 18 h, 35° C., read-out: MIC
Summary of the method: as §1

[30] = system: Staphylococcus aureus ATTC 29213; details: 35° C.
Summary of the method: as §1

[31] = system: Serratia marcescens VGH 84-30; details: Serratia marcescens, VGH8430, 18 h, 35° C., read-out: MIC
Summary of the method: as §1

[32] = system: Pseudomonas aeruginosa LL-1244; details: Pseudomonas aeruginosa, LL1244, 18 h, 35° C., read-out: MIC
Summary of the method: as §1

SMILES	MIC [3]	MIC [5]	MIC [6]	MIC (Citrobacter div. K 82-24)	MIC [8]	MIC [9]	MIC [10]	MIC [11]	MIC [12]	MIC [13]	MIC [14]	MIC [15]	MIC ([17]; 18 hours)	MIC [18]	MIC [19]	MIC [20]	MIC [23]	MIC [24]	MIC [25]	MIC [26]	further results
O=C(O)c1cn(C2CC2)c2cc(N3CCNC(c4ccco4)C3)c(F)cc2c1=O (stereo not shown) [Example 62, 1-Cyclopropyl-6-fluoro-7-[3-(2-furanvl)-1-piperazinyl]-1,4-dihydro-4-oxo-3-quinolinecarboxylic acid]	0.25 µg/mL (≈ 0.629 µM)	8 µg/mL (≈ 20.1 µM)	0.25 µg/mL (≈ 0.629 µM)	0.12 µg/mL (≈ 0.302 µM)	8 µg/mL (≈ 20.1 µM)	0.12 µg/mL (≈ 0.302 µM)	16 µg/mL (≈ 40.3 µM)	0.03 µg/mL (≈ 0.0755 µM)	0.03 µg/mL (≈ 0.0755 µM)	0.25 µg/mL (≈ 0.629 µM)	0.25 µg/mL (≈ 0.629 µM)	0.06 µg/mL (≈ 0.151 µM)	0.03 µg/mL and 0.06 µg/mL	0.06 µg/mL (≈ 0.151 µM)	> 16 µg/mL	1 µg/mL (≈ 2.52 µM)	16 µg/mL (≈ 40.3 µM)	0.12 µg/mL (≈ 0.302 µM)	1 µg/mL (≈ 2.52 µM)	0.06 µg/mL (≈ 0.151 µM)	MIC ([1]; 18 hours): 0.015 µg/mL (≈ 0.0377 µM); MIC [2]: 0.25 µg/mL (≈ 0.629 µM); MIC ([4]; 18 hours): 0.015 µg/mL (≈ 0.0377 µM); MIC ([7]; 18 hours): 0.25 µg/mL (≈ 0.629 µM); MIC ([16]; 18 hours): 1 µg/mL (≈ 2.52 µM); MIC ([21]; 18 hours): 0.06 µg/mL (≈ 0.151 µM); MIC ([22]; 18 hours): 1 µg/mL (≈ 2.52 µM)
O=C(O)c1cn(C2CC2)c2cc(N3CCNC(c4ccoc4)C3)c(F)cc2c1=O (stereo not shown) [Example 92]	0.5 µg/mL (≈ 1.26 µM)	4 µg/mL (≈ 10.1 µM)	0.25 µg/mL (≈ 0.629 µM)	0.06 µg/mL (≈ 0.151 µM)	4 µg/mL (≈ 10.1 µM)	0.12 µg/mL (≈ 0.302 µM)	8 µg/mL (≈ 20.1 µM)	0.03 µg/mL (≈ 0.0755 µM)	0.12 µg/mL (≈ 0.302 µM)	0.25 µg/mL (≈ 0.629 µM)	0.25 µg/mL (≈ 0.629 µM)	0.12 µg/mL (≈ 0.302 µM)	0.12 µg/mL (≈ 0.302 µM)	0.06 µg/mL (≈ 0.151 µM)	16 µg/mL (≈ 40.3 µM)	1 µg/mL (≈ 2.52 µM)	8 µg/mL (≈ 20.1 µM)	0.12 µg/mL (≈ 0.302 µM)	1 µg/mL (≈ 2.52 µM)	0.06 µg/mL (≈ 0.151 µM)	MIC ([1]; Staphylococcus aureus, VGH8445, 18 h, read-out: MIC): 0.03 µg/mL (≈ 0.0755 µM); MIC [27]: 0.5 µg/mL (≈ 1.26 µM); MIC [28]: 0.06 µg/mL (≈ 0.151 µM); MIC ([4]; Staphylococcus aureus, 18 h, read-out: MIC): 0.03 µg/mL (≈ 0.0755 µM); MIC [29]: 1 µg/mL (≈ 2.52 µM); MIC ([30]; 18 hours): 0.12 µg/mL (≈ 0.302 µM); MIC ([30]; Staphylococcus aureus, ATTC29213, 18 h, read-out: MIC): 0.06 µg/mL (≈ 0.151 µM); MIC ([7]; Morganella morganii, CMC8438, 18 h, read-out: MIC): 0.25 µg/mL (≈ 0.629 µM); MIC [31]: 4 µg/mL (≈ 10.1 µM); MIC ([16]; Enterobacter cloacae, MOR8430, 18 h, read-out: MIC): 1 µg/mL (≈ 2.52 µM); MIC ([17]; Escherichia coli, ATCC25922, 18 h, read-out: MIC): 0.06 µg/mL (≈ 0.151 µM); MIC [32]: 2 µg/mL (≈ 5.03 µM); MIC ([21]; Morganella morganii, CMC8437, 18 h, read-out: MIC): 0.06 µg/mL (≈ 0.151 µM); MIC ([22]; Pseudomonas aeruginosa, VGH844, 18 h, read-out: MIC): 2 µg/mL (≈ 5.03 µM)
